From patent publication US20250214977A1, “STAT6 INHIBITORS AND USES THEREOF” (Kymera Therapeutics, Inc., priority 2024, published 2025)

These compounds were tested on Phosphorylation of STAT6 in human PBMC (CD19+ B cells) (assay: Phosphorylated STAT6 (pSTAT6) flow cytometry assay in human PBMC, IL-4 stimulated). Conditions: compound 1 hour, 1 ng/ml IL-4 for 15 minutes, read-out: STAT6 IL4 pSTAT6 assay in PBMC: Average IC50.
Type: cell-based
How it was run: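 Human PBMC preincubated 1 h at 37 °C with compound (9-point 1:3 series, top up to 30 μM), then stimulated with 1 ng/ml IL-4 for 15 min. After fixation, methanol permeabilization and staining, pSTAT6 quantified in CD19+ B cells by flow cytometry; four-parameter fit of inhibition.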

SMILES	IC50
CN(C)C(=O)c1cc2cc(C3=CCCN(C(=O)CCn4ccnn4)C3)cc(N3CCNCC3)c2o1 [Example I-191]	> 100 µM
CN(C)C(=O)c1cc2cc(C3=CCCN(C(=O)C4Cc5c(N)cccc5CN4C=O)C3)ccc2o1 (centres unmarked) [Example I-8]	0.1 to 1 µM
CN(C)C(=O)c1cc2cc(C3=CCCN(C(=O)CCc4cccnc4)C3)ccc2o1 [Example I-301]	> 100 µM
CN(C)C(=O)c1cc2cc(C3=CCCN(C(=O)Cc4ccc5c(c4)CN(C(=O)OC(C)(C)C)CC5)C3)ccc2o1 [Example I-259]	> 100 µM
CNC1(C(=O)N2CCC=C(c3ccc4oc(C(=O)N(C)C)cc4c3)C2)CCc2ccccc2C1 (centres unmarked) [Example I-5]	10 to 100 µM
CN(C)C(=O)c1cc2cc(C3=CCCN(C(=O)CCn4ccnn4)C3)ccc2[nH]1 [Example I-308]	> 100 µM
CN(C)C(=O)c1cc2ccc(C3=CCCN(C(=O)C4CCCS4(=O)=O)C3)cc2[nH]1 (centres unmarked) [Example I-40]	10 to 100 µM
CN(C)C(=O)c1cc2cc([C@@H]3CN(C(=O)CCn4ccnn4)CC[C@H]3O)ccc2o1 (single isomer, unassigned) [Example I-209]	> 100 µM
CN(C)C(=O)c1cc2cc(C3=CCCN(C(=O)CCc4cnccn4)C3)ccc2o1 [Example I-216]	> 100 µM
CN(C)C(=O)c1cc2cc(C3=CCCN(C(=O)C4Cc5c(cccc5C5CCNCC5)CN4C=O)C3)ccc2o1 (centres unmarked) [Example I-181]	> 100 µM
CN(C)C(=O)c1cc2ccc(C3=CCCN(C(=O)c4cc(=O)c(OCc5ccccc5)c[nH]4)C3)cc2[nH]1 [Example I-110]	> 100 µM
CN(C)C(=O)c1cc2ccc(C3=CCCN(C(=O)CCc4ccccc4C#N)C3)cc2[nH]1 [Example I-64]	> 100 µM
CN(C)C(=O)c1cc2ccc(C3=CCCN(C(=O)CCc4nnc[nH]4)C3)cc2[nH]1 [Example I-21]	> 100 µM
CNCc1cccc2c1CC(C(=O)N1CCC=C(c3ccc4oc(C(=O)N(C)C)cc4c3)C1)N(C=O)C2 (centres unmarked) [Example I-148]	> 100 µM
CN(C)C(=O)c1cc2cc(C3=CCCN(C(=O)CCn4ccnn4)C3)cc(CN3CCNCC3)c2o1 [Example I-167]	> 100 µM
COC(=O)C1CCC(c2ccc3oc(C(=O)N(C)C)cc3c2)CN1C(=O)CCn1ccnn1 (mixture of isomers) [Example I-1]	> 100 µM
CN(C)C(=O)c1cc2ccc(C3=CCCN(C(=O)c4cn(C5CC5)nn4)C3)cc2[nH]1 [Example I-45]	10 to 100 µM
CN(C)C(=O)c1cc2cc(C3=CCCN(C(=O)Cn4ccc5ccccc54)C3)ccc2o1 [Example I-274]	> 100 µM
CN(C)C(=O)c1cc2c(F)c(C3=CCCN(C(=O)CCn4ccnn4)C3)ccc2o1 [Example I-323]	0.1 to 1 µM
CN(C)C(=O)c1cc2cc(C3=CCCN(C(=O)CCc4nc5ccccc5s4)C3)ccc2o1 [Example I-237]	> 100 µM
CC(=O)N1CCC(c2cc(C3=CCCN(C(=O)CCn4ccnn4)C3)cc3cc(C(=O)N(C)C)oc23)CC1 [Example I-190]	10 to 100 µM
CN(C)C(=O)c1cc2cc(C3=CCCN(C(=O)Cn4ncc5ccccc54)C3)ccc2o1 [Example I-284]	> 100 µM
CCN[C@H](Cn1ccnn1)C(=O)N1CCC=C(c2ccc3oc(C(=O)N(C)C)cc3c2)C1 [Example I-169]	> 100 µM
CN(C)C(=O)c1cc2ccc(C3=CCCN(C(=O)c4cccnc4SCc4ccccc4)C3)cc2[nH]1 [Example I-95]	> 100 µM

SMILES	IC50
CN(C)C(=O)c1cc2ccc(C3=CCCN(C(=O)c4cccnc4-c4cc(F)cc(F)c4)C3)cc2[nH]1 [Example I-94]	10 to 100 µM
CC(=O)N1CCN(c2cc(C3=CCCN(C(=O)CCn4ccnn4)C3)cc3cc(C(=O)N(C)C)oc23)CC1 [Example I-207]	> 100 µM
COC(=O)c1ccc(OCC(=O)N2CCC=C(c3ccc4cc(C(=O)N(C)C)[nH]c4c3)C2)cc1 [Example I-142]	> 100 µM
CC(=O)NCc1ccccc1-c1ccccc1CC(=O)N1CCC=C(c2ccc3oc(C(=O)N(C)C)cc3c2)C1 [Example I-219]	> 100 µM
COc1ccc(Cn2cc(CC(=O)N3CCC=C(c4ccc5cc(C(=O)N(C)C)[nH]c5c4)C3)cn2)cc1 [Example I-136]	> 100 µM
CN(C)C(=O)c1nc2cc(C3=CCCN(C(=O)CCn4ccnn4)C3)ccc2[nH]1 [Example I-234]	> 100 µM
CN(C)C(=O)c1cc2cc(C3=CCCN(C(=O)CCc4ccnnc4)C3)ccc2o1 [Example I-225]	> 100 µM
CN(C)C(=O)c1cc2cc(C3=CCCN(C(=O)[C@H](N)Cn4ccnn4)C3)ccc2o1 (single isomer, unassigned) [Example I-174]	> 100 µM
CN(C)C(=O)c1cc2ccc(C3=CCCN(C(=O)CCc4ccc(C#N)cc4)C3)cc2[nH]1 [Example I-162]	> 100 µM
CN(C)C(=O)c1cc2cc([C@@H]3CC[C@H](CO)N(C(=O)CCn4ccnn4)C3)ccc2o1 (single isomer, unassigned) [Example I-156]	> 100 µM
COCc1oncc1C(=O)N1CCC=C(c2ccc3cc(C(=O)N(C)C)[nH]c3c2)C1 [Example I-145]	> 100 µM
CN(C)C(=O)c1cc2cc(C3=CCCN(C(=O)CCn4ccnn4)C3)cc(CN3CC(N)C3)c2o1 [Example I-166]	> 100 µM
CN(C)C(=O)c1cc2cc(C3=CCCN(C(=O)Cc4ccc5ncccc5c4)C3)ccc2o1 [Example I-273]	> 100 µM
Cc1cn(CCC(=O)N2CCC=C(c3ccc4cc(C(=O)N(C)C)[nH]c4c3)C2)nn1 [Example I-319]	> 100 µM
CN(C)C(=O)c1cc2ccc(C3=CCCN(C(=O)CCc4ccon4)C3)cc2[nH]1 [Example I-20]	> 100 µM
CN(C)C(=O)c1cc2ccc(C3=CCCN(C(=O)Cc4cccnc4O)C3)cc2[nH]1 [Example I-257]	> 100 µM
CN(C)C(=O)c1cc2ccc(C3=CCCN(C(=O)c4ccccc4C(=O)c4ccc(F)cc4)C3)cc2[nH]1 [Example I-108]	> 100 µM
CN(C)C(=O)c1cc2ccc(C3=CCCN(C(=O)c4ccccc4-c4ccccc4C(=O)O)C3)cc2[nH]1 [Example I-105]	10 to 100 µM
CN(C)C(=O)c1cc2cc(C3=CCCN(C(=O)Cn4nnc5ccccc54)C3)ccc2o1 [Example I-254]	> 100 µM
CN(C)C(=O)c1cc2cc(C3=CCCN(C(=O)CCc4ccc5c(c4)OCCO5)C3)ccc2o1 [Example I-280]	> 100 µM
O=C(CCn1ccnn1)N1CCC=C(c2c[nH]c3cc(-n4ccccc4=O)ccc23)C1 [Example I-277]	> 100 µM
CN(C)C(=O)c1cc2ccc(C3=CCCN(C(=O)CCc4ccccn4)C3)cc2[nH]1 [Example I-212]	10 to 100 µM
CN(C)C(=O)c1cc2cc(C3=CCCN(C(=O)Cc4cccc5ccccc45)C3)ccc2o1 [Example I-294]	> 100 µM
CN(C)C(=O)c1cc2ccc(C3=CCCN(C(=O)C4CC4F)C3)cc2[nH]1 (centres unmarked) [Example I-25]	> 100 µM

SMILES	IC50
C#Cc1cc(C2=CCCN(C(=O)CCn3ccnn3)C2)cc2cc(C(=O)N(C)C)oc12 [Example I-23]	> 100 µM
CC(=O)N1CCc2ccccc2[C@@H]1C(=O)N1CCC=C(c2ccc3oc(C(=O)N(C)C)cc3c2)C1 (single isomer, unassigned) [Example I-177]	> 100 µM
CC(=O)NCc1ccc(CC(=O)N2CCC=C(c3ccc4oc(C(=O)N(C)C)cc4c3)C2)cc1 [Example I-252]	> 100 µM
CNCc1cc(C2=CCCN(C(=O)CCn3ccnn3)C2)cc2cc(C(=O)N(C)C)oc12 [Example I-203]	10 to 100 µM
CN(C)C(=O)c1cc2ccc(C3=CCCN(C(=O)C4CC(O)C4)C3)cc2[nH]1 (centres unmarked) [Example I-28]	10 to 100 µM
CN(C)C(=O)c1cc2cc(C3CCCN(C(=O)CCn4ccnn4)C3)ccc2o1 (centres unmarked) [Example I-305]	> 100 µM
CC(C(=O)N1CCC=C(c2ccc3cc(C(=O)N(C)C)[nH]c3c2)C1)n1ccccc1=O (centres unmarked) [Example I-53]	1 to 10 µM
CN(C)C(=O)c1cc2ccc(C3=CCCN(C(=O)[C@@H](N)Cc4cccc(F)c4)C3)cc2[nH]1 [Example I-65]	> 100 µM
CNc1ccc(-c2cc(C3=CCCN(C(=O)CCn4ccnn4)C3)cc3[nH]c(C(=O)N(C)C)cc23)c(F)c1 [Example I-115]	1 to 10 µM
CNc1ccc(-c2cc(C3=CCCN(C(=O)CCn4ccnn4)C3)cc3[nH]c(C(=O)N(C)C)cc23)c(C)c1 [Example I-114]	0.1 to 1 µM
CC(=O)N1CCc2ccc(CC(=O)N3CCC=C(c4ccc5oc(C(=O)N(C)C)cc5c4)C3)cc2C1 [Example I-193]	> 100 µM
CN(C)C(=O)c1cc2cc(C3=CCCN(C(=O)Cc4cccnc4)C3)ccc2o1 [Example I-275]	> 100 µM
CN(C)C(=O)c1cc2ccc(C3=CCCN(S(=O)(=O)Cc4cccnn4)C3)cc2[nH]1 [Example I-16]	> 100 µM
CNc1ccc(-c2cc(C3=CCCN(C(=O)CCn4ccnn4)C3)cc3[nH]c(C(=O)N(C)C)cc23)nc1 [Example I-116]	0.1 to 1 µM
CN(C)C(=O)c1cc2cc(C3CCC(CO)N(C(=O)CCn4ccnn4)C3)ccc2o1 (centres unmarked) [Example I-154]	> 100 µM
CN(C)C(=O)c1cc2ccc(C3=CCCN(C(=O)[C@@H]4C[C@H]4c4ccn(C)n4)C3)cc2[nH]1 [Example I-11]	10 to 100 µM
CN(C)C(=O)c1cc2ncc(C3=CCCN(C(=O)CCn4ccnn4)C3)cc2[nH]1 [Example I-194]	> 100 µM
CN(C)C(=O)c1cc2ccc(C3=CCCN(C(=O)Cn4ccnn4)C3)cc2[nH]1 [Example I-37]	10 to 100 µM
CN(C)C(=O)c1cc2ccc(C3=CCCN(C(=O)C(c4ccc(F)cc4)c4ccc(F)cc4)C3)cc2[nH]1 [Example I-160]	> 100 µM
CN(C)C(=O)c1cc2ccc(C3=CCCN(C(=O)[C@@H]4C[C@H](c5ccccc5)CN4)C3)cc2[nH]1 [Example I-76]	> 100 µM
CN(C)C(=O)c1cn2ccc(C3=CCCN(C(=O)CCn4ccnn4)C3)cc2n1 [Example I-289]	> 100 µM
CN(C)C(=O)c1cc2ccc(C3=CCCN(C(=O)c4[nH]nc5c4CS(=O)(=O)C5)C3)cc2[nH]1 [Example I-57]	10 to 100 µM
CN(C)C(=O)c1cc2cc(C3=CCCN(C(=O)Cc4cnc5ccccn45)C3)ccc2o1 [Example I-276]	> 100 µM
